The values that follow come from patent EP0464206A1, “DRUG FOR IMPROVING BRAIN FUNCTION” (DAIICHI PHARMACEUTICAL CO., LTD., priority 1989, dated 1990).

One series is described as follows: Acute toxicity in rats. As to conditions: in vivo, iv; rat, intravenously injected; read-out: LD₅₀. The method, then:
The cAMP derivative of formula (I) and a salt thereof were administered to rats in order to examine the acute toxicities of these compounds.
(§1) DBcAMP was intravenously injected into rats and mice to thereby examine the acute toxicity thereof. As a result, LD₅₀ of this compound to rat was 459 mg/kg while that to mouse was 545 mg/kg.

The subject of series [1] is patients, who suffered from cerebrovascular dementia or Alzheimer's type senile dementia with Parkinson's disease as a complication. Kind of series: Clinical administration of DBcAMP by intravenous drip infusion to dementia patients. As to conditions: for Side effect / Progress after administration and evaluation (symptom/ condition): 300 mg/day intravenous drip infusion for 8 hours. It counts as in vivo. The method, then: 300 mg of sodium N⁶-2'-0-dibutyryladenosine-3',5'-cyclic phosphate (hereinafter, abbreviated as DBcAMP) was dissolved in a saline and administered to five patients, who suffered from cerebrovascular dementia or Alzheimer's type senile dementia with Parkinson's disease as a complication, by intravenous drip infusion for approximately 8 hours per day continuously.
These patients gave no response to a call and their intellectual level was decreased. […] Therefore, it was recognized that these patients suffered from serious dementia.

A further series can be described thus: Acute toxicity in mice. As to conditions: in vivo, iv; mouse, intravenously injected; read-out: LD₅₀. Here is the method: as §1
[2] abbreviates: Test 2: patient five, Cerebrovascular dementia.

With `CCCC(=O)Nc1ncnc2c1ncn2[C@@H]1O[C@@H]2COP(=O)(O)O[C@H]2[C@H]1OC(=O)CCC` [DBcAMP, sodium N⁶-2'-0-dibutyryladenosine-3',5'-cyclic phosphate], the results for the LD50 in “Acute toxicity in rats” and in the series “Acute toxicity in mice” were 459 mg/kg and 545 mg/kg, respectively. The Side effect entry was “None” in series [1] (Test 1: patient three, Alzheimer's type dementia); “None” in series [1] (setting [2]); “None” in series [1] (Test 3: patient four, Cerebrovascular dementia); “None” in series [1] (Test 4: patient two, Alzheimer's type dementia); “None” in series [1] (Test 5: patient one, Cerebrovascular dementia, multiple cerebral infarct). Moreover, the “Progress after administration and evaluation (symptom/ condition)” value in series [1] (setting [2]) is given as “Showed "Yes" or "No" for simple question by shaking head 1 week after the administration. No speech but groan. Remarkable improvement in symptoms caused by a decline in brain function, compared before the administration”; in series [1] (Test 3: patient four, Cerebrovascular dementia (with Parkinson's disease)), “Groaned in night from the second day of the administration, after a year's silence. Groaning became larger thereafter. Improvement in various symptoms caused by a decline in brain function”; in series [1] (Test 4: patient two, Alzheimer's type dementia (with Parkinson's disease)), “Answered to call 1 week after the administration. Soliloquized in night. Remarkable improvement in symptoms caused by a decline in brain function”. Further, in series [1] (five patients, 300 mg/day intravenous drip infusion), the “symptoms of the complicated Parkinson's disease” value is “disappearance of oily skin and reduced myosclerosis”.
